Measurements from patent US12398121B2 (Nuvation Bio Inc., priority 2018, dated 2025).

System: HT-29 cells
Assay: Cell proliferation assay (CellTiter Glo), HT-29
Format: cell-based
Conditions: Homo sapiens, HT-29, 72 h, read-out: HT-29 IC50
Experimental: IC50 values were calculated and graphed using the model “log(inhibitor) vs. response—Variable slope” included in GraphPad Prism 5 (San Diego, CA). The Ki values were further calculated using the equation below where [L] was the radioligand concentration (1 nM) using in this study. Kd value was 0.332 nM. Ki=IC50/(1+[L]/Kd) c. AR transactivation: Human AR cloned into a CMV vector backbone was used for the transactivation study. HEK-293 cells were plated at 80,000 cells per well of a 24 well plate in DME+5% csFBS. Twenty four hours later, the cells were transfected using Lipofectamine (Invitrogen, Carlsbad, CA) with 0.25 μg GRE-LUC, 0.01 μg CMV-LUC (renilla luciferase) and 25 ng of the AR in OPTIMEM medium. The cells were treated 24 hrs after transfection with various ligands (10^−12 to 10^−5 M final concentrations) and luciferase assay were performed 48 hours after transfection. Firefly values were normalized to renilla luciferase values and the values were represented as relative light units (RLU). Agonist and antagonist assays for the test article were performed in the absence and in the combination with 0.1 nM R1881, respectively. Data were represented as EC50 (for agonists) and IC50 (for antagonists) obtained from four parameter logistics curve. Cell culture and proliferation assays: LNCaP, PC-3, 22RV1, MCF-7, HT-29, and HCT-116 cells were procured from American Type Culture Collection (ATCC). Cells were cultured in medium recommended by the ATCC. Cell culture medium was obtained from Fisher scientific (Waltham, MA) and serum was obtained from Hyclone (San Angelo, TX).
Cells were plated at varying density in the respective growth medium in 96 well plates. 24 hr later, cells were treated, in triplicate or quadruplicate, with test articles prepared in a range of concentrations by series dilution of DMSO stock solutions in growth medium and incubated for three to seven days. The number of viable 22RV1 and HT-29 cells was measured using CellTiter Glo assay (CTG, Promega, Madison, WI) after three days of treatment. The other types of cancer cells were re-treated at three or four days and the number of viable cells was measured using CTG assay after a total treatment time of six or seven days. Cell viability data were plotted using GraphPad Prism (GraphPad Software, Inc., San Diego, CA). In addition, a nonlinear regression model with a sigmoidal dose response and variable slope within GraphPad Prism was used to calculate the IC50 value of individual test articles. Additional cell proliferation assays: Other cancer cell lines are tested in a cell proliferation assay. For example, SK-OV-3 or OVCAR3 ovarian cancer cells are tested. Cells are cultured in medium recommended by the supplier (e.g., ATCC or JCRB Cell Bank), at 37° C. in a 5% CO2 environment. For the proliferation assay, cells are plated in the growth medium in 96 well plates. Seeding density is adjusted according to the cell type. 24 hr later, cells are treated, in triplicate or quadruplicate, with test articles prepared in a range of concentrations by series dilution of DMSO stock solutions in growth medium, and typically incubated for three to seven days, with test article-containing medium replaced after three or four days. The number of viable cells is measured using CellTiter Glo assay (CTG, Promega, Madison, WI) or similar. Cell viability data are plotted using GraphPad Prism (GraphPad Software, Inc., San Diego, CA). In addition, a nonlinear regression model with a sigmoidal dose response and variable slope within GraphPad Prism is used to calculate the IC50 value of individual test articles. Similarly, HEK-293 and HeLa calls can also be tested by methods known in the art. • f. Nuclear translocation: LNCaP cells are plated on coverslips in 24 well plates in growth medium. Twenty-four hours after plating, medium is changed to RPMI+1% csFBS and the cells are maintained in this medium for two days. Medium is replaced again and the cells are treated. […]

First: C[C@]12CCC(=O)C[C@@H]1CC[C@@H]1[C@@H]2CC[C@]2(C)[C@@H](OCCCCCC(=O)N3CCN(C(=O)c4cc(Cc5n[nH]c(=O)c6ccccc56)ccc4F)CC3)CC[C@@H]12 [Compound 1.2, 4-(3-(4-(6-(((5S,8R,9S,10S,13S,14S,17S)-10,13-dimethyl-3-oxohexadecahydro-1H-cyclopenta[a]phenanthren-17-yl)oxy)hexanoyl)piperazine-1-carbonyl)-4-fluorobenzyl)phthalazin-1(2H)-one]
Second: CC1(C)C(=O)N(c2ccc(C#N)c(C(F)(F)F)c2)C(=S)N1c1ccc(C(=O)NCCCCCC(=O)N2CCN(C(=O)c3cc(Cc4n[nH]c(=O)c5ccccc45)ccc3F)CC2)c(F)c1 [Compound 1.1, 4-(3-(4-cyano-3-(trifluoromethyl)phenyl)-5,5-dimethyl-4-oxo-2-thioxoimidazolidin-1-yl)-2-fluoro-N-(6-(4-(2-fluoro-5-((4-oxo-3,4-dihydrophthalazin-1-yl)methyl)benzoyl)piperazin-1-yl)-6-oxohexyl)benzamide]
The IC50 of the first is higher: over 10 µM for the first, 0.3 µM for the second. The second is the more potent here.

C[C@](O)(CS(=O)(=O)c1ccc(NCCCCCC(=O)N2CCN(C(=O)c3cc(Cc4n[nH]c(=O)c5ccccc45)ccc3F)CC2)cc1)C(=O)Nc1ccc(C#N)c(C(F)(F)F)c1 [Compound 1.68, (R)-N-(4-cyano-3-(trifluoromethyl)phenyl)-3-(4-(6-(4-(2-fluoro-5-((4-oxo-3,4-dihydrophthalazin-1-yl)methyl)benzoyl)piperazin-1-yl)-6-oxohexylamino)phenylsulfonyl)-2-hydroxy-2-methylpropanamide] and C[C@](O)(COc1ccc(NCCCCCC(=O)N2CCN(C(=O)c3cc(Cc4n[nH]c(=O)c5ccccc45)ccc3F)CC2)cc1)C(=O)Nc1ccc(C#N)c(C(F)(F)F)c1 [Compound 1.83, (S)-N-(4-cyano-3-(trifluoromethyl)phenyl)-3-(4-(6-(4-(2-fluoro-5-((4-oxo-3,4-dihydrophthalazin-1-yl)methyl)benzoyl)piperazin-1-yl)-6-oxohexylamino)phenoxy)-2-hydroxy-2-methylpropanamide] cannot be ordered by IC50: over 10 µM for the first, over 10 µM for the second.

Compared with CC1(C)C(=O)N(c2ccc(C#N)c(C(F)(F)F)c2)C(=S)N1c1ccc(C(=O)NCCCCCCNCc2ccc(-c3[nH]c4cc(F)cc5c4c3CCNC5=O)cc2)c(F)c1 [Compound 1.5, 4-(3-(4-cyano-3-(trifluoromethyl)phenyl)-5,5-dimethyl-4-oxo-2-thioxoimidazolidin-1-yl)-2-fluoro-N-(6-((4-(8-fluoro-1-oxo-2,3,4,6-tetrahydro-1H-azepino[5,4,3-cd]indol-5-yl)benzyl)amino)hexyl)benzamide], CC(O)(CS(=O)(=O)c1ccc(NCCn2cc(CN3CCN(C(=O)c4cc(Cc5n[nH]c(=O)c6ccccc56)ccc4F)CC3)nn2)cc1)C(=O)Nc1ccc(C#N)c(C(F)(F)F)c1 (stereo in doubt) [Compound 1.97, (S)-N-(4-cyano-3-(trifluoromethyl)phenyl)-3-(4-(2-(4-((4-(2-fluoro-5-((4-oxo-3,4-dihydrophthalazin-1-yl)methyl)benzoyl)piperazin-1-yl)methyl)-1H-1,2,3-triazol-1-yl)ethylamino)phenylsulfonyl)-2-hydroxy-2-methylpropanamide] is higher in IC50: 5 µM for the first, over 30 µM for the second. The first is the more potent here.

Same assay, conditions: Homo sapiens, HT-29, 72 h; cell growth inhibition, three days of treatment; read-out: HT-29 IC50

C[C@]12CCC(=O)C[C@@H]1CC[C@@H]1[C@@H]2CC[C@]2(C)[C@@H](OCC(=O)N3CCN(C(=O)c4cc(Cc5n[nH]c(=O)c6ccccc56)ccc4F)CC3)CC[C@@H]12 [Compound 1.110, 4-(3-(4-(2-((5S,8R,9S,10S,13S,14S,17S)-10,13-dimethyl-3-oxohexadecahydro-1H-cyclopenta[a]phenanthren-17-yloxy)acetyl)piperazine-1-carbonyl)-4-fluorobenzyl)phthalazin-1(2H)-one] and C[C@]12CCC(=O)C[C@@H]1CC[C@@H]1[C@@H]2CC[C@]2(C)[C@@H](OCCOCC(=O)N3CCN(C(=O)c4cc(Cc5n[nH]c(=O)c6ccccc56)ccc4F)CC3)CC[C@@H]12 [Compound 1.104, 4-(3-(4-(2-(2-((5S,8R,9S,10S,13S,14S,17S)-10,13-dimethyl-3-oxohexadeca hydro-1H-cyclopenta[a]phenanthren-17-yloxy)ethoxy)acetyl)piperazine-1-carbonyl)-4-fluorobenzyl)phthalazin-1(2H)-one] are within 1.5-fold of each other in IC50: 9.5 µM for the first, 9.3 µM for the second.

First: O=C(c1ccc(OCCN2CCN(C(=O)c3cc(Cc4n[nH]c(=O)c5ccccc45)ccc3F)CC2)cc1)c1c(-c2ccc(O)cc2)sc2cc(O)ccc12 [Compound 2.13, 4-(4-fluoro-3-(4-(2-(4-(6-hydroxy-2-(4-hydroxyphenyl)benzo[b]thiophene-3-carbonyl)phenoxy)ethyl)piperazine-1-carbonyl)benzyl)phthalazin-1(2H)-one]
Second: CCC(=C(c1ccc(O)cc1)c1ccc(OCCN2CCN(C(=O)c3cc(Cc4n[nH]c(=O)c5ccccc45)ccc3F)CC2)cc1)c1ccccc1 [Compound 2.14, 4-(4-fluoro-3-(4-(2-(4-(1-(4-hydroxyphenyl)-2-phenylbut-1-enyl)phenoxy)ethyl)piperazine-1-carbonyl)benzyl)pthalazin-1(2H)-one]
The IC50 of the first is lower: 6 µM for the first, over 30 µM for the second. The first is the more potent here.
